From patent US11548855B2, “Pyrazole amide compound and application thereof, and fungicide” (Shandong United Pesticide Industry Co. Ltd., priority 2017, dated 2023)

Key:
[1] = system: soybean rust (Phakopsora pacchyrhizi Sydow); test: Greenhouse pot test, soybean rust; assay type: in vivo; details: Glycine max, 168 h, read-out: Control effect (%) Soybean rust
Procedure: (§1) Test method: each of the test compounds in Table 1 was dispensed to 5 wt % emulsifiable concentrate (hereinafter referred to as 5% EC). The greenhouse pot test was used in each experiment, and the effective concentrations of each compound were illustrated in Table 1.
Soybean rust: two-leaf stage potted soybean seedling with uniform growth was selected and made foliar spray treatment with 5% EC, the blank control sprayed with clean water was additionally arranged, three replicates were carried out. After 24 h, the leaves of the host plants were inoculated with sporangial suspensions of the fungi soybean rust (Phakopsora pacchyrhizi Sydow), the plants were stored in humidity chamber (temperature 20-25° C., relative humidity>95%) and then transferred to greenhouse (25±1° C.) 8-16 h after infection. After 7 days, the screening results were investigated according to the disease incidence condition of blank control.
(§2) The investigation method: “Guidelines for the field efficacy trials of pesticides” was adopted as the grading standard, and the control effect in a unit of % was calculated based on the disease index. Disease index=Σ(number of diseased leaves at each grade×relative grade value)×100/(total number of leaves×9); Control effect (%)=(disease index of control−disease index of treated)×100/disease index of control;
(§3) The compounds provided by the present disclosure and some control compounds were tested by the same methods in the Test example 1, except that the effective concentrations of the compounds in this Test example are shown in Table 2.

[2] = system: wheat powdery mildew (Erysiphe graminis); test: Greenhouse pot test, wheat powdery mildew; assay type: in vivo; details: Blumeria graminis, 168 h, read-out: Control effect (%) Wheat powdery mildew
From the text: as §1
Wheat powdery mildew: two-leaf stage potted wheat seedling with uniform growth was selected and made foliar spray treatment with 5% EC, the blank control sprayed with clean water was additionally arranged, three replicates were carried out. After 24 h, the leaves of the host plants were inoculated by shake-down method with sporangial suspensions of the fungi wheat powdery mildew (Erysiphe graminis), the plants were stored in a greenhouse (25±1° C.). After 7 days, the screening results were investigated according to the disease incidence condition of blank control.
as §2, §3

[3] = system: cucumber powdery mildew; test: Greenhouse pot test, cucumber powdery mildew; assay type: in vivo; details: Cucumis sativus, 192 h, greenhouse pot, read-out: Control effect (%) Cucumber powdery mildew
Procedure: as §1
Cucumber powdery mildew: cucumber seedling in a true leaf period with uniform growth was selected, and dried in the shade for 24 h after spray treatment. Fresh cucumber powdery mildew spores on the cucumber leaves were collected and washed, and filtered through a double gauze to prepare a spores suspension with concentration of about 100,000/mL, then spray inoculation was applied. The test materials inoculated were moved into a greenhouse (lighting 21-23° C.), after 8 days, the grading investigation was carried out according to the disease incidence condition of blank control, and the control effect in a unit of % was calculated according to disease index.
as §2, §3

[4] = system: cucumber powdery mildew; test: Field trial, cucumber powdery mildew; assay type: in vivo; details: sprayed twice
Procedure: I. Cucumber Powdery Mildew Test Method:
Spray method: Stein and leaf spray (Applicator: Xinkangda lithium battery electric sprayer).
Test crop: cucumber (cultivars: Tianjiao7)
(§4) The test was carried out in Shenyang, the test field was loam with rich organic matters and normal management of fertilizer and water, and no other pesticide was applied during the test.
The arrangement of the test plot was random block permutation; the area of the test plot: 15 m^2; repeat times: 3 times; spray time and frequency: period between Sep. 28, 2018 and Oct. 11, 2018, twice. Spray dosage: each treatment was repeated 3 times, the total water consumption was 8 L. No other pesticide was applied during the test. […] 15-20 days after the second treatment, the incidence of disease spots in each plot was investigated.
The incidence of disease spots in each plot was investigated by randomly selecting 4 samples/plot and 2 plants/samples, all leaves/plant, the incidence of the whole plant was recorded by counting the number of disease leaves and determining the incidence grade.
Grading standard (in units of leaves):
(§5) Grade 0: no leaf-spot area;
(§6) Grade 1: the ratio of leaf-spot area to leaf area is less than 5%;
Grade 3: the ratio of leaf-spot area to leaf area is between 6-10%;
Grade 5: the ratio of leaf-spot area to leaf area is between 11-20%;
Grade 7: the ratio of leaf-spot area to leaf area is between 21-40%;
Grade 9: the ratio of leaf-spot area to leaf area is more than 40%;
(§7) According to the relevant content of the “Guidelines for the field efficacy trials of pesticides of the People's Republic of China (PRC)”, the disease index was calculated according to the grading standard, and the control effect in a unit of % was calculated based on the disease index, and the test data of significance analysis was performed by using DPS evaluation system (DMRT).

[5] = system: wheat powdery mildew; test: Field trial, wheat powdery mildew; assay type: in vivo, Erysiphe graminis; details: sprayed once
Procedure: II. The Wheat Powdery Mildew Test Method:
(§8) Spray method: Stein and leaf spraying (Applicator: Xinkangda lithium battery electric sprayer).
Test crops: wheat (cultivars: Liaochun 10)
as §4
The arrangement of the test plot was random block permutation; the area of the test plot: 15 m^2; repeat times: 3 times; spray time and frequency: Sep. 17, 2018, once. Spray dosage: each treatment was repeated 3 times, the total water consumption was 8 L. No other pesticide was applied during the test.
The incidence of disease spots in each plot was investigated by diagonal selecting 4 samples/plot and 20 plants/samples, and the first leaf below the flag leaf of each plant was investigated.
(§9) The grading standard of crop disease was as follows:
as §5, §6
(§10) Grade 3: the ratio of leaf-spot area to leaf area is between 6-25%;
(§11) Grade 5: the ratio of leaf-spot area to leaf area is between 26-50%;
(§12) Grade 7: the ratio of leaf-spot area to leaf area is between 51-75%;
(§13) Grade 9: the ratio of leaf-spot area to leaf area is between 76-100%;
as §7

[6] = system: soybean rust; test: Field trial, soybean rust; assay type: in vivo, Phakopsora pacchyrhizi Sydow; details: sprayed 2 times
Procedure: III. The Soybean Rust Test Method:
as §8
Test crops: soybean (cultivars: Glycine max(L) Merr)
as §4
The arrangement of the test plot was random block permutation; the area of the test plot: 25 m^2; repeat times: 3 times; spray time and frequency: 2 times on Aug. 11, 2018 and Aug. 21, 2018 respectively. Spray dosage: each treatment was repeated 3 times, the total water consumption was 8 L. No other pesticide was applied during the test. […] 15-20 days after the second spray treatment, the control effect was investigated.
The incidence of disease spots in each plot was investigated by diagonal selecting 5 samples/plot and 20 plants/samples, 10 leaves/plant was surveyed.
as §9, §5, §6, §10, §11, §12, §13, §7

Cn1cc(C(=O)Nc2ccccc2Oc2ccc(C(F)(F)F)cc2C(F)(F)F)c(C(F)F)n1 [Compound 1]
97.69%: Control effect (%) ([6]; dosage 100 mg/L)
85%: pest or weed control at 1.5625 µg/mL ([2]; 1.5625 mg/L)
90.0%: Control effect (%) Cucumber powdery mildew ([4]; 100 mg/L)
98%: pest or weed control at 2.5 µg/mL ([3]; 2.5 mg/L) | Control effect (%) Wheat powdery mildew ([5]; 100 mg/L)
94.56%: Control effect (%) ([6]; dosage 75 mg/L)
100%: pest or weed control at 0.5 µg/mL ([1]; 0.5 mg/L) | pest or weed control at 1 µg/mL ([1]; 1 mg/L) | pest or weed control at 1.5625 µg/mL ([1]; 1.5625 mg/L) | pest or weed control at 2.5 µg/mL ([1]; 2.5 mg/L) | pest or weed control at 3.125 µg/mL ([1]; 3.1250 mg/L) | pest or weed control at 6.25 µg/mL ([1]; 6.25 mg/L) | pest or weed control at 10 µg/mL ([1]; 10 mg/L) | pest or weed control at 25 µg/mL ([1]; 25 mg/L) | pest or weed control at 100 µg/mL ([1]; 100 mg/L) | pest or weed control at 2.5 µg/mL ([2]; 2.5 mg/L) | pest or weed control at 3.125 µg/mL ([2]; 3.1250 mg/L) | pest or weed control at 6.25 µg/mL ([2]; 6.25 mg/L) | pest or weed control at 10 µg/mL ([2]; 10 mg/L) | pest or weed control at 25 µg/mL ([2]; 25 mg/L) | pest or weed control at 100 µg/mL ([2]; 100 mg/L) | pest or weed control at 3.125 µg/mL ([3]; 3.1250 mg/L) | pest or weed control at 6.25 µg/mL ([3]; 6.25 mg/L) | pest or weed control at 10 µg/mL ([3]; 10 mg/L) | pest or weed control at 25 µg/mL ([3]; 25 mg/L) | pest or weed control at 100 µg/mL ([3]; 100 mg/L) | Control effect (%) Wheat powdery mildew ([5]; 200 mg/L)
95%: pest or weed control at 1.5625 µg/mL ([3]; 1.5625 mg/L)
96.5%: Control effect (%) Cucumber powdery mildew ([4]; 200 mg/L)
90%: pest or weed control at 1 µg/mL ([3]; 1 mg/L)
92.67%: Control effect (%) ([6]; dosage 50 mg/L)
